Numbers after ± are expanded uncertainties.
Conditions: Crystal; visual observation

`CO[C@@]12[C@H](COC(N)=O)C3=C(C(=O)C(C)=C(N)C3=O)N1C[C@@H]1N[C@@H]12` [ametycine] showed a Normal melting temperature of 360.00 ± 1 °C.
